Assay results: PMC10388311, “Innovative Strategy toward Mutant CFTR Rescue in Cystic Fibrosis: Design and Synthesis of Thiadiazole Inhibitors of the E3 Ligase RNF5” (Journal of Medicinal Chemistry, 2023)
Entries after “also recorded” stand apart in the source; their conditions may differ.

What was measured:
[1] = test system: ATG4B-mediated basal autophagy in F508del-CFTR-expressing CFBE41o– cells; assay: Labeling of autophagic vacuoles with monodansylcadaverine (MDC); format: cell-based, human; conditions: test compounds 5 μM 24 h; torin-1 20 nM and SAR-405 2 μM in the last 3 h
From the text: To further support our hypothesis that CFTR rescue following treatment with test compounds was indeed due to RNF5 inhibition, we considered additional biological processes known to be regulated by RNF5 ligase activity. To this aim, we focused our attention on ATG4B, a known regulator of basal autophagy, whose degradation is mediated by RNF5 activity.[54]In vivo ubiquitination experiments previously confirmed that inh-2 inhibits ATG4B degradation, thus increasing the basal level of autophagy.[40] […] We thus evaluated the effect of inh-2 analogues on induction of the autophagy pathway. To this aim, we monitored the formation of autophagic vacuoles in F508del-CFTR-expressing CFBE41o^– cells (Figure 8) by using the autolysosome marker monodansylcadaverine (MDC). MDC accumulates inside autophagosomes. After fusion of autophagosomes with lysosomes, MDC fluorescence increases due to the acidic environment.[55] Therefore, F508del-CFTR-expressing CFBE41o^– cells were treated for 24 h with test compounds (5 μM), VX-809 (1 μM), or DMSO alone (vehicle). In the last 3 h of incubation, we added torin-1 (20 nM), a known autophagy inducer, and SAR-405 (2 μM), a potent inhibitor of the autophagic pathway. The cells were then loaded with MDC and evaluated by high-content confocal imaging to detect signal spots (corresponding to autophagic vacuoles) in each cell.
CFBE41o^– cells stably expressing F508del-CFTR and the HS-YFP were plated (50,000 cells/well) on good-quality clear-bottom 96-well black microplates suitable for high-content imaging. After 24 h, cells were treated with test compounds or DMSO (as the negative control). […] After 24 h, cells were incubated with 50 μM MDC (Sigma-Aldrich) in PBS at 37 °C for 10 min.[62] After incubation, cells were washed three times with PBS and immediately analyzed. High-content imaging and data analysis were performed using the Opera Phenix (PerkinElmer) high-content screening system. Wells were imaged in confocal mode using a 40× water-immersion objective. The MDC signal was laser-excited at 405 nm, and the emission wavelengths were collected between 435 and 550 nm. Data analysis of MDC spot number was performed using the Harmony software (ver 4.5) of the Opera Phenix high-content system. Data are expressed as means ± SEM, n = 3 independent experiments. Statistical significance was tested by parametric ANOVA followed by the Dunnet multiple comparisons test (all groups against the control group).

[2] = biological target: F508del-CFTR in CFBE41o– cells (Homo sapiens, UniProt Q99942); assay: CFTR immunoprecipitation and Western blot (CFTR expression and ubiquitylation); format: cell-based; conditions: 24 h, 16 5 μM, VX-661 + VX-445 10 μM + 3 μM
Sequence of F508del-CFTR in CFBE41o– cells (Q99942 2-180): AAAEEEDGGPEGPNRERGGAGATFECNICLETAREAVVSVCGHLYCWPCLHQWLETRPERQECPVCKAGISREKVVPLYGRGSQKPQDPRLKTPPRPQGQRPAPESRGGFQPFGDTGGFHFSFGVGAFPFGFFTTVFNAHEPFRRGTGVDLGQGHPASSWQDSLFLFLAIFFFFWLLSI
Sequence of F508del-CFTR in CFBE41o– cells (P13569 with tags, fused parts or gaps DEL508-508 partner): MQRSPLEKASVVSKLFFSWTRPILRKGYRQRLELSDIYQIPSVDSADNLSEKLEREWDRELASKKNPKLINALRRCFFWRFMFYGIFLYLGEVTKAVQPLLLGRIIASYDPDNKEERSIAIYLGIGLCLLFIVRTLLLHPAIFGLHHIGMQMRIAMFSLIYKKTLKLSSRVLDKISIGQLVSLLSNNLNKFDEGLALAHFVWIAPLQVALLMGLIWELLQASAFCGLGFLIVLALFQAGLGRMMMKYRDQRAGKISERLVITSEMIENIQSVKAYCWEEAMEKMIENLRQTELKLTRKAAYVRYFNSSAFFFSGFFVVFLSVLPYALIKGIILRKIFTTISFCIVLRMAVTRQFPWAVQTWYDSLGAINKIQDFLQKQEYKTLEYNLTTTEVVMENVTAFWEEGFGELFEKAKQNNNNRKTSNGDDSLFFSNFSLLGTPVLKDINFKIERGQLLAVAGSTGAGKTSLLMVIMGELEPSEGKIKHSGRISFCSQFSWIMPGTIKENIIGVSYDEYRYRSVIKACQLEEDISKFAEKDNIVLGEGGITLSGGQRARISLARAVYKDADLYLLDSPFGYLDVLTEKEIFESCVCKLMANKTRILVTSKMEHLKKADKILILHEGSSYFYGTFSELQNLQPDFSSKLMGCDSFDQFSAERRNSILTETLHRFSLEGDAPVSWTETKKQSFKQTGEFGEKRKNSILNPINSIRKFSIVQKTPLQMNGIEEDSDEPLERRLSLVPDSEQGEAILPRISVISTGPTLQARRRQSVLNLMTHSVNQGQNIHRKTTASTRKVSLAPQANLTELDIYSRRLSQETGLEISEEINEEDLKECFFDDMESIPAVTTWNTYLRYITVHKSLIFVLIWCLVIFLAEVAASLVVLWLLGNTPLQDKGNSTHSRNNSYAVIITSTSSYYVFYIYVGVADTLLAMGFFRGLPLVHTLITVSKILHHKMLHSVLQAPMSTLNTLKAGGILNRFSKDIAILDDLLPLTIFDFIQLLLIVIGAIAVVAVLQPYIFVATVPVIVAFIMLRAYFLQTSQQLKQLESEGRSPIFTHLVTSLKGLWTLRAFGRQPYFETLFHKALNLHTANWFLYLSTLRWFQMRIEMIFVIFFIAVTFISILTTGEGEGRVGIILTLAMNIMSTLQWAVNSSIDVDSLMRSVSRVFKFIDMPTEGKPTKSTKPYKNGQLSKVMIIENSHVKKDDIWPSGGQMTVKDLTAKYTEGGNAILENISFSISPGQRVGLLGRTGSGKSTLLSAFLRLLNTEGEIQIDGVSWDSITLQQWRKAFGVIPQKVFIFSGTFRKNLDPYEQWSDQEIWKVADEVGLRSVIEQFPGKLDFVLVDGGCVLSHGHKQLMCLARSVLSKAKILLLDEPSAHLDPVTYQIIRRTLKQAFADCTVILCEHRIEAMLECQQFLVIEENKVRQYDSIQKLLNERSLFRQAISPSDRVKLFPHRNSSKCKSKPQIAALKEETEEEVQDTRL
Procedure: Finally, we evaluated ubiquitylation of mutant CFTR in CFBE41o^– cells following 24 h treatment with DMSO (vehicle), analogue 16, VX-661 + VX-445, and their combination. Subsequently, cells were treated for 4 h with DMSO alone or with MG-132 (10 μM; to block proteasomal degradation) and then lysed. Cell lysates were immunoprecipitated using an anti-CFTR antibody and then subjected to SDS-PAGE followed by Western blotting to evaluate CFTR expression and ubiquitylation status (Figure 9C–F). […] In brief, cells were lysed and, after centrifugation, the protein concentration in the supernatant was calculated using the BCA assay (Euroclone, Pero (MI), Italy) following supplier’s instructions An aliquot of supernatant corresponding to 600 μg of protein was incubated for 1 h with 2 μg/sample of rabbit polyclonal anti-CFTR antibody (Alomone Labs, Jerusalem, Israel), with rocking at room temperature (RT). […] Equal amounts of IP products were analyzed by Western blotting (20 μL). […] In brief, equal amounts of lysates (25 μg) or IP products (20 μL) were separated onto gradient 4–15% Criterion TGX Precast gels (Bio-rad laboratories Inc.), transferred to a nitrocellulose membrane with a Trans-Blot Turbo system (Bio-rad Laboratories Inc.), and analyzed by Western blotting. […]

Structure (SMILES)	number of autophagic vacuoles (MDC signal spots) [1]	rescue of mutant CFTR (mature form, band C) [2]
COc1cccc(Cn2c(C)ns/c2=N\C(=N\c2ccccc2)c2ccccc2)c1 [Compound 16, (E)-N-((Z)-4-(3-Methoxybenzyl)-3-methyl-1,2,4-thiadiazol-5(4H)-ylidene)-N′-phenylbenzimidamide]	significantly increased; also recorded: strong activation of basal autophagy	very modest
Cc1ns/c(=N\C(=N\c2ccccc2)c2ccccc2)n1Cc1ccccc1 [inh-2, reference compound]	significantly increased	–
